Data set [1] in a line: Population pharmacokinetic analysis. The data set is classed as in vivo, human.
The conditions of data set [2]: adult subjects with T2D, cited from earlier work.

Read-outs that look alike come from different tables or passages of the source.

In the case of `CCCCCCCCCCCCCCCC(=O)N[C@@H](CCC(=O)NCCCC[C@H](NC(=O)[C@H](C)NC(=O)[C@H](C)NC(=O)[C@H](CCC(N)=O)NC(=O)CNC(=O)[C@H](CCC(=O)O)NC(=O)[C@H](CC(C)C)NC(=O)[C@H](Cc1ccc(O)cc1)NC(=O)[C@H](CO)NC(=O)[C@H](CO)NC(=O)[C@@H](NC(=O)[C@H](CC(=O)O)NC(=O)[C@H](CO)NC(=O)[C@@H](NC(=O)[C@H](Cc1ccccc1)NC(=O)[C@@H](NC(=O)CNC(=O)[C@H](CCC(=O)O)NC(=O)[C@H](C)NC(=O)[C@@H](N)Cc1cnc[nH]1)[C@@H](C)O)[C@@H](C)O)C(C)C)C(=O)N[C@@H](CCC(=O)O)C(=O)N[C@@H](Cc1ccccc1)C(=O)N[C@H](C(=O)N[C@@H](C)C(=O)N[C@@H](Cc1c[nH]c2ccccc12)C(=O)N[C@@H](CC(C)C)C(=O)N[C@H](C(=O)N[C@@H](CCCNC(=N)N)C(=O)NCC(=O)N[C@@H](CCCNC(=N)N)C(=O)NCC(=O)O)C(C)C)[C@@H](C)CC)C(=O)O` [liraglutide], the “Decrease in AUC24, pediatric age group” value in data set [1] (compared with an adult subject of the same weight and gender) was 10%. Moreover, the “Geometric mean AUC24 lower at highest observed body weight (216 kg)” value in data set [1] (compared with exposure at reference body weight of 90 kg) was determined as 56%. In data set [1] (compared with the reference female subject of the same body weight), the “Lower drug exposure (AUC24) for males” value was determined as 31%. Besides, in data set [2] (liraglutide 1.2 mg and 1.8 mg alone or in combination with other oral antidiabetic drugs and/or insulin), the “Mean decrease in glycated hemoglobin [HbA1c]” value is “up to −1.5%”. Also, the “Safety and tolerability profile” value in data set [2] (liraglutide 1.2 mg and 1.8 mg) was “acceptable safety and tolerability profile”. Moreover, the Mean weight loss in data set [2] (liraglutide 1.2 mg) is at most -2.9 kg; in data set [2] (liraglutide 1.8 mg) it was “up to −3.4 kg”.
